This note sets out measurements from patent US20200165291A1, “NEUROACTIVE STEROIDS, COMPOSITIONS, AND USES THEREOF” (Sage Therapeutics, Inc., priority 2014, published 2020).

Structures are written as SMILES. Like-named read-outs stand apart in the source and are kept apart here.

Experiment [1] has as its target [35S]-TBPS binding, rat brain cortical membranes (GABA receptor complex). The experiment in a line: [35S]-TBPS binding (steroid inhibition of TBPS binding). Conditions: in the presence of 5 μM GABA, read-out: 35S-TBPS Radioligand Displacement. How it is done:
[35S]-t-Butylbicyclophosphorothionate (TBPS) binding assays using rat brain cortical membranes in the presence of 5 μM GABA has been described (Gee et al, J. Pharmacol. Exp. Ther. 1987, 241, 346-353; Hawkinson et al, Mol. Pharmacol. 1994, 46, 977-985; Lewin, A. H et al., Mol. Pharmacol. 1989, 35, 189-194).
Briefly, cortices are rapidly removed following decapitation of carbon dioxide-anesthetized Sprague-Dawley rats (200-250 g). The cortices are homogenized in 10 volumes of ice-cold 0.32 M sucrose using a glass/teflon homogenizer and centrifuged at 1500×g for 10 min at 4° C. The resultant supernatants are centrifuged at 10,000×g for 20 min at 4° C. to obtain the P2 pellets. The P2 pellets are resuspended in 200 mM NaCl/50 mM Na-K phosphate pH 7.4 buffer and centrifuged at 10,000×g for 10 min at 4° C. This washing procedure is repeated twice and the pellets are resuspended in 10 volumes of buffer. Aliquots (100 μL) of the membrane suspensions are incubated with 3 nM [^35S]-TBPS and 5 μL aliquots of test drug dissolved in dimethyl sulfoxide (DMSO) (final 0.5%) in the presence of 5 μM GABA. The incubation is brought to a final volume of 1.0 mL with buffer. Nonspecific binding is determined in the presence of 2 μM unlabeled TBPS and ranged from 15 to 25%. Following a 90 min incubation at room temp, the assays are terminated by filtration through glass fiber filters (Schleicher and Schuell No. 32) using a cell harvester (Brandel) and rinsed three times with ice-cold buffer. Filter bound radioactivity is measured by liquid scintillation spectrometry. Non-linear curve fitting of the overall data for each drug averaged for each concentration is done using Prism (GraphPad). […] The concentration of test compound producing 50% inhibition (IC50) of specific binding and the maximal extent of inhibition (Imax) are determined for the individual experiments with the same model used for the overall data and then the means±SEM.s of the individual experiments are calculated.
Various compounds are or can be screened to determine their potential as modulators of [^35S]-TBPS binding in vitro. These assays are or can be performed in accordance with the above discussed procedures.

Experiment [2] concerns the target T1, recombinant α1β2γ2 GABAA receptors (Homo sapiens, UniProt P14867+P47870).
T1 construct: expressed in transfected cells
The experiment in a line: Patch clamp electrophysiology, QPatch, LTK cells. The format is cell-based. Conditions: 10 μM test article, GABA EC20 = 2 μM, read-out: GABA (α1β2γ2) Qpatch in Ltk, % efficacy at 10 μM.

T1 sequence (P14867 28-456): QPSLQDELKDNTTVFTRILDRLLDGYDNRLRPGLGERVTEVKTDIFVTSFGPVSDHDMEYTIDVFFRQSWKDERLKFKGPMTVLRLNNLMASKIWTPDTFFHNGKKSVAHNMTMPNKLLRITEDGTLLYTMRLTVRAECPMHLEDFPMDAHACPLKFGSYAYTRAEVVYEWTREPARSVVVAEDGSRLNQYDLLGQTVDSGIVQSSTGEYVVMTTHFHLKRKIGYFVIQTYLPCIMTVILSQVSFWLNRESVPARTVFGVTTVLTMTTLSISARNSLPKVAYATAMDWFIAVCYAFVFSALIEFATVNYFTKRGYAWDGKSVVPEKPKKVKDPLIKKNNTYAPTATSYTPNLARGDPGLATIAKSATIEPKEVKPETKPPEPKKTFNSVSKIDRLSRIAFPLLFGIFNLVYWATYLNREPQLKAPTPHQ
T1 sequence (P47870 25-512 limits assumed): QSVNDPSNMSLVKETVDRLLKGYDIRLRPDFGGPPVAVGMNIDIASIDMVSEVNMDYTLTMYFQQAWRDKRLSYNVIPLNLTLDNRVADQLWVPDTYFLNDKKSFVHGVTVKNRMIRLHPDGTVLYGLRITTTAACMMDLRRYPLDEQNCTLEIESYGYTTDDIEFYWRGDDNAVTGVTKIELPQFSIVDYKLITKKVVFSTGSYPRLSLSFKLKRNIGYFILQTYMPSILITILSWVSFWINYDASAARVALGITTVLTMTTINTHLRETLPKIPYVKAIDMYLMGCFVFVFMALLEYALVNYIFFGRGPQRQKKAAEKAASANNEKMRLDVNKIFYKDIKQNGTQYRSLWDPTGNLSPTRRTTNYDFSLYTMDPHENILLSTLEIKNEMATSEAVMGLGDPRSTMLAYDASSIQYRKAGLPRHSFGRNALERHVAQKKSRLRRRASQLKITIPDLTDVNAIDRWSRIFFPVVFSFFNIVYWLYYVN
T1 sequence (P18507 40-475 partner): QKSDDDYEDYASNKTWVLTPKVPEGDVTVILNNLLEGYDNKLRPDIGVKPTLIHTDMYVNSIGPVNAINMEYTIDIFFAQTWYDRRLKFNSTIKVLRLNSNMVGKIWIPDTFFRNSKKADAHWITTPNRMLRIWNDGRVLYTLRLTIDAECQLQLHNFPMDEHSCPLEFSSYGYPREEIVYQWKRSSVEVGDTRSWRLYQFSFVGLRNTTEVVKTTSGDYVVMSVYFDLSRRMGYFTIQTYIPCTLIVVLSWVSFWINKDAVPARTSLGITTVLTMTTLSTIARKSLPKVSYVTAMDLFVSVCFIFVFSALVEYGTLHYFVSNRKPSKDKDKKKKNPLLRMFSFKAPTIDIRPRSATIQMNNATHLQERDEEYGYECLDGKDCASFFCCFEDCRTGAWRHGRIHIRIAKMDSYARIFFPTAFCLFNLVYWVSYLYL

Turning to `C[C@@]1(O)CC[C@H]2[C@H](CC[C@@H]3[C@@H]2CC[C@]2(C)[C@@H](C(=O)Cn4cncn4)CC[C@@H]32)C1` [SA-1], in experiment [1], the IC50 lay within 100 to 500 nM. The Emax at 10 µM in experiment [2] fell in the range of 100 to 500%.
Take `Cc1cn(CC(=O)[C@H]2CC[C@H]3[C@@H]4CC[C@@H]5C[C@](C)(O)CC[C@@H]5[C@H]4CC[C@]23C)nn1` [SA-5]: in experiment [2], the Emax at 10 µM is above 500%.
On the same count and under the same terms, the value for `C[C@@]1(O)CC[C@H]2[C@H](CC[C@@H]3[C@@H]2CC[C@]2(C)[C@@H](C(=O)Cn4nnc(C(F)(F)F)n4)CC[C@@H]32)C1` [SA-8] was 100 to 500%.
Take `C[C@@]1(O)CC[C@H]2[C@H](CC[C@@H]3[C@@H]2CC[C@]2(C)[C@@H](C(=O)Cn4cc(C#N)nn4)CC[C@@H]32)C1` [SA-20]: in experiment [2] (in cremophor), the Emax at 10 µM lay in the range of 100 to 500%.
In the case of `C[C@]12CC[C@H]3[C@@H](CC[C@H]4C[C@@](O)(CF)CC[C@@H]43)[C@@H]1CC[C@@H]2C(=O)Cn1ccnn1` [SD-1], the IC50 in experiment [1] is above 500 nM.
For `Cc1nnnn1CC(=O)[C@H]1CC[C@H]2[C@@H]3CC[C@H]4C[C@@](O)(CF)CC[C@@H]4[C@H]3CC[C@]12C` [SD-2], in experiment [2], the Emax at 10 µM was 100 to 500%.
With `Cc1nnn(CC(=O)[C@H]2CC[C@H]3[C@@H]4CC[C@H]5C[C@@](O)(CF)CC[C@@H]5[C@H]4CC[C@]23C)n1` [SD-3], the Emax at 10 µM in experiment [2] is 100 to 500%.
Regarding `C[C@]12CC[C@H]3[C@@H](CC[C@H]4C[C@@](O)(CF)CC[C@@H]43)[C@@H]1CC[C@@H]2C(=O)Cn1cnnn1` [SD-4], in experiment [1], the IC50 is above 500 nM. Moreover, the Emax at 10 µM in experiment [2] lay within 100 to 500%.
Take `CC[C@@]1(O)CC[C@H]2[C@H](CC[C@@H]3[C@@H]2CC[C@]2(C)[C@@H](C(=O)Cn4cnnn4)CC[C@@H]32)C1` [SE-1]: in experiment [2], the Emax at 10 µM is 100 to 500%.
The same measure, in the same setting: then `CC[C@@]1(O)CC[C@H]2[C@H](CC[C@@H]3[C@@H]2CC[C@]2(C)[C@@H](C(=O)Cn4ncnn4)CC[C@@H]32)C1` [SE-2], with above 500%.
For `CC[C@@]1(O)CC[C@H]2[C@H](CC[C@@H]3[C@@H]2CC[C@]2(C)[C@@H](C(=O)Cn4ccnn4)CC[C@@H]32)C1` [SE-3], the IC50 in experiment [1] was 100 to 500 nM. Besides, the Emax at 10 µM in experiment [2] was 100 to 500%.
With `CC[C@@]1(O)CC[C@H]2[C@H](CC[C@@H]3[C@@H]2CC[C@]2(C)[C@@H](C(=O)Cn4nnnc4C)CC[C@@H]32)C1` [SE-5], in experiment [1], the IC50 is above 500 nM.
On to `CC[C@@]1(O)CC[C@H]2[C@H](CC[C@@H]3[C@@H]2CC[C@]2(C)[C@@H](C(=O)Cn4nnc(C)n4)CC[C@@H]32)C1` [SE-6], for which, in experiment [1], the IC50 was above 500 nM. In addition, the Emax at 10 µM in experiment [2] was 10 to 100%.
In the same order, the values of `C[C@]12CC[C@H]3[C@@H](CC[C@@H]4C[C@@](O)(CF)CC[C@@H]43)[C@@H]1CC[C@@H]2C(=O)Cn1cnnn1` [SF-1] are 100 to 500 nM and 100 to 500%.
In the same order, the values of `C[C@]12CC[C@H]3[C@@H](CC[C@@H]4C[C@@](O)(CF)CC[C@@H]43)[C@@H]1CC[C@@H]2C(=O)Cn1ccnn1` [SF-4] are 100 to 500 nM and 100 to 500%.
As for `Cc1nnnn1CC(=O)[C@H]1CC[C@H]2[C@@H]3CC[C@@H]4C[C@@](O)(C(F)F)CC[C@@H]4[C@H]3CC[C@]12C` [SG-3], in experiment [2], the Emax at 10 µM was in the range of 100 to 500%.
Consider `Cc1nnn(CC(=O)[C@H]2CC[C@H]3[C@@H]4CC[C@@H]5C[C@@](O)(C(F)F)CC[C@@H]5[C@H]4CC[C@]23C)n1` [SG-4], for which the Emax at 10 µM in experiment [2] fell in the range of 100 to 500%.
As for `C[C@@]1(O)CC[C@@H]2[C@H]3CC[C@]4(C)[C@@H](C(=O)Cn5ccnn5)CC[C@H]4[C@@H]3C[C@@H](F)[C@@H]2C1` [SH-1], the IC50 in experiment [1] is above 500 nM.
`C[C@@]1(O)CC[C@@H]2[C@H]3CC[C@]4(C)[C@@H](C(=O)Cn5nccn5)CC[C@H]4[C@@H]3C[C@@H](F)[C@@H]2C1` [SH-2]: the IC50 in experiment [1] was above 500 nM. The Emax at 10 µM in experiment [2] was 100 to 500%.
In the same order, the values of `CO[C@@H]1C[C@@H]2[C@H](CC[C@]3(C)[C@@H](C(=O)Cn4ccnn4)CC[C@@H]23)[C@H]2CC[C@@](C)(O)C[C@H]21` [SL-1] are above 500 nM and 10 to 100%.
In the same order, the values of `CO[C@@H]1C[C@@H]2[C@H](CC[C@]3(C)[C@@H](C(=O)Cn4nccn4)CC[C@@H]23)[C@H]2CC[C@@](C)(O)C[C@H]21` [SL-2] are above 500 nM and 10 to 100%.
As for `COC[C@@]1(O)CC[C@H]2[C@H](CC[C@@H]3[C@@H]2CC[C@]2(C)[C@@H](C(=O)Cn4cnnn4)CC[C@@H]32)C1` [SM-1], in experiment [1], the IC50 lay within 100 to 500 nM. Besides, the Emax at 10 µM in experiment [2] lay in the range of 100 to 500%.
`COC[C@@]1(O)CC[C@H]2[C@H](CC[C@@H]3[C@@H]2CC[C@]2(C)[C@@H](C(=O)Cn4nnnc4C)CC[C@@H]32)C1` [SM-3]: the Emax at 10 µM in experiment [2] is above 500%.
As to `COC[C@@]1(O)CC[C@H]2[C@H](CC[C@@H]3[C@@H]2CC[C@]2(C)[C@@H](C(=O)Cn4nnc(C)n4)CC[C@@H]32)C1` [SM-4], the Emax at 10 µM in experiment [2] is above 500%.
Regarding `COC[C@@]1(O)CC[C@H]2[C@H](CC[C@@H]3[C@@H]2CC[C@]2(C)[C@@H](C(=O)Cn4ccnn4)CC[C@@H]32)C1` [SM-5], in experiment [1], the IC50 is 100 to 500 nM. In experiment [2], the Emax at 10 µM was above 500%.
In the same order, the values of `C[C@@H]1C[C@H]2[C@@H](CC[C@@H]3[C@@H]2CC[C@]2(C)[C@@H](C(=O)Cn4ccnn4)CC[C@@H]32)C[C@]1(C)O` [SN-1] are 50 to 100 nM and 100 to 500%.
In the case of `CCOC[C@@]1(O)CC[C@H]2[C@H](CC[C@@H]3[C@@H]2CC[C@]2(C)[C@@H](C(=O)Cn4nnnc4C)CC[C@@H]32)C1` [SO-1], the Emax at 10 µM in experiment [2] was in the range of 100 to 500%.
Regarding `CCOC[C@@]1(O)CC[C@H]2[C@H](CC[C@@H]3[C@@H]2CC[C@]2(C)[C@@H](C(=O)Cn4nnc(C)n4)CC[C@@H]32)C1` [SO-2], in experiment [1], the IC50 was above 500 nM.
On the same count and under the same terms, then `CC[C@@]1(O)CC[C@H]2[C@@H](CC[C@@H]3[C@@H]2CC[C@]2(C)[C@@H](C(=O)Cn4ccnn4)CC[C@@H]32)C1` [SP-1], with above 500 nM.
As to `CC[C@@]1(O)CC[C@H]2[C@@H](CC[C@@H]3[C@@H]2CC[C@]2(C)[C@@H](C(=O)Cn4nccn4)CC[C@@H]32)C1` [SP-2], the IC50 in experiment [1] is 100 to 500 nM. Also, the Emax at 10 µM in experiment [2] lay in the range of 100 to 500%.
As to `CC[C@@]1(O)CC[C@H]2[C@@H](CC[C@@H]3[C@@H]2CC[C@]2(C)[C@@H](C(=O)Cn4ncnn4)CC[C@@H]32)C1` [SP-3], in experiment [2], the Emax at 10 µM was in the range of 100 to 500%.
The same measure, in the same setting: the value for `CC[C@@]1(O)CC[C@H]2[C@@H](CC[C@@H]3[C@@H]2CC[C@]2(C)[C@@H](C(=O)Cn4nnc(C)n4)CC[C@@H]32)C1` [SP-5] was 100 to 500%.
For `CCOC[C@@]1(O)CC[C@H]2[C@@H](CC[C@@H]3[C@@H]2CC[C@]2(C)[C@@H](C(=O)Cn4ccnn4)CC[C@@H]32)C1` [SQ-1], the IC50 in experiment [1] is above 500 nM.
As to `CCOC[C@@]1(O)CC[C@H]2[C@@H](CC[C@@H]3[C@@H]2CC[C@]2(C)[C@@H](C(=O)Cn4nccn4)CC[C@@H]32)C1` [SQ-2], the Emax at 10 µM in experiment [2] lay in the range of 100 to 500%.
Turning to `CCOC[C@@]1(O)CC[C@H]2[C@@H](CC[C@@H]3[C@@H]2CC[C@]2(C)[C@@H](C(=O)Cn4ncnn4)CC[C@@H]32)C1` [SQ-3], the Emax at 10 µM in experiment [2] is above 500%.
The same measure, in the same setting: then `CCOC[C@@]1(O)CC[C@H]2[C@@H](CC[C@@H]3[C@@H]2CC[C@]2(C)[C@@H](C(=O)Cn4cnnn4)CC[C@@H]32)C1` [SQ-4], with 100 to 500%.
In the case of `CCOC[C@@]1(O)CC[C@H]2[C@@H](CC[C@@H]3[C@@H]2CC[C@]2(C)[C@@H](C(=O)Cn4nnnc4C)CC[C@@H]32)C1` [SQ-5], in experiment [1], the IC50 is above 500 nM.
Regarding `CCOC[C@@]1(O)CC[C@H]2[C@@H](CC[C@@H]3[C@@H]2CC[C@]2(C)[C@@H](C(=O)Cn4nnc(C)n4)CC[C@@H]32)C1` [SQ-6], the Emax at 10 µM in experiment [2] lay within 100 to 500%.
Consider `C[C@]12CC[C@H]3[C@@H](CC[C@H]4C[C@@](O)(C(F)F)CC[C@@H]43)[C@@H]1CC[C@@H]2C(=O)Cn1ccnn1` [SS-1], for which the IC50 in experiment [1] was 100 to 500 nM.
On to `Cc1cnn(CC(=O)[C@H]2CC[C@H]3[C@@H]4C[C@@H](F)[C@H]5C[C@](C)(O)CC[C@@H]5[C@H]4CC[C@]23C)n1` [SV-7], for which the Emax at 10 µM in experiment [2] lay in the range of 100 to 500%.
On the same count and under the same terms, the value for `Cc1cn(CC(=O)[C@H]2CC[C@H]3[C@@H]4C[C@@H](F)[C@H]5C[C@](C)(O)CC[C@@H]5[C@H]4CC[C@]23C)nn1` [SV-8] was above 500%; that for `Cc1cnnn1CC(=O)[C@H]1CC[C@H]2[C@@H]3C[C@@H](F)[C@H]4C[C@](C)(O)CC[C@@H]4[C@H]3CC[C@]12C` [SV-9] was 100 to 500%.
For the compound `CO[C@@H]1C[C@@H]2[C@H](CC[C@]3(C)[C@@H](C(=O)Cn4nccn4)CC[C@@H]23)[C@H]2CC[C@@](C)(O)C[C@@H]21` [SW-2], in experiment [1], the IC50 was above 500 nM.
